Assay [1] can be described thus: ORAC (oxygen radical absorbance capacity) assay. The following applies: for Antioxidant capacity (ORAC): pure compounds, Table 13; for ORAC value: Centipeda fractions, Table 7. As for the experimental part:
The antioxidant capacity of the Centipeda fractions was measured using the ORAC procedure (Oxygen Radical Absorbance Capacity). A water soluble analogue of vitamin E, Trolox, was used as a reference standard, and the ORAC value is expressed as μmol of trolox equivalence (TE) per gram of sample extract.
The ORAC assay employed in this study measured the antioxidant scavenging activity in the test samples, against peroxyl radicals induced by 2,2′-azobis(2-amidinopropane)dihydrochloride (AAPH) at 37° C. Fluorescein was used as the fluorescent probe. The method used is based on that of Huang et al.^1, Huang et al.^2 and Prior et al.^3 ^1 Huang et al., 2002. Journal of Agricultural and Food Chemistry 50(16): 1815-1821.^2 Huang et al., 2002. Journal of Agricultural and Food Chemistry 50(16): 4437-4444.^3 Prior et al., 2003. Journal of Agricultural and Food Chemistry 51(11): 3273-3279.
All samples were assayed using the hydrophilic ORAC procedure in serial dilution×4 with acetone:water:acetic acid; 70:29.5:0.5 (A:W:A,) and in quadruplicate, starting with the concentration relevant to the sample, depending on the approximated antioxidant capacity from an initial screen.
Trolox, a water soluble analogue of vitamin E, was used as a reference standard. A trolox standard curve was established from trolox standards prepared at 100, 50, 25, and 12.5 μM in A:W:A.
Briefly, 10 μL fluorescein (6.0×10^−7 M), 20 μL samples/standards/control/blank (A:W:A) and 170 μL […] (20 mM) were added per well. Immediately after loading, the plate was transferred to the plate reader preset to 37° C., and the fluorescence was measured 35 times at one minute intervals. The fluorescence readings were referenced to solvent blank wells. The final ORAC values were calculated using a regression equation between the Trolox concentration and the net area under the fluorescein decay curve, and where possible were expressed as Trolox equivalents (TE) as micromoles per gram of sample.

In assay [2] the test system is prostaglandin E2 production in 3T3 Swiss Albino fibroblast cells. The experiment in a line: Inhibition of prostaglandin E2 production in calcium ionophore stimulated cells. The following applies: for dose response in PGE2 assay: over the concentration range tested; for IC50: range of concentrations, read-out: IC 50 values, Average (PGE2 assay). The class given is cell-based. Also on record: Anti-inflammatory capacity, Average (PGE2 assay): unit: %. The protocol: Samples were tested for their ability to inhibit prostaglandin E2 production in cells stimulated by a calcium ionophore, compared to stimulated cells not exposed to any sample. Inhibition was tested over a range of 3 concentrations, although a dose response was not observed for most samples. This is probably because the samples are very efficient at inhibiting PGE2 production and the range of concentrations used was too narrow. The data presented are the maximal inhibition of PGE2 observed for a given sample.
3T3 Swiss Albino fibroblast cell suspension (Phenol-red free DMEM with 10% FBS and 2 mM L-glutamine) was plated out into 96-well tissue culture plates (1×10^5 cells/mL, 100 μL/well). The cells were cultured overnight at 37° C., 5% CO2. […] Cells+samples were incubated (37° C., 3 hours), before the addition of calcium ionophore A23187. Following 20 min incubation, the plate was centrifuged (1000 g, 3 min) and the supernatants were removed. Included on the plate was a positive control (aspirin; 100 μM), and DMSO control, both with and without calcium ionophore A23187.
The supernatants were diluted by serial dilution (1:500) in enzyme immunoassay (EIA) buffer, and assayed for PGE2 using the Prostaglandin E2 EIA Monoclonal Kit (Cayman Chemical; Cat No. 514010), according to manufacturers' instructions.

Values after ≈ are worked out from the molar mass of the structure shown.

By inhibition is commonly meant the share of the control response that was lost under treatment.

Consider `COC(=O)/C(O)=C/C(OC(=O)/C=C/c1ccc(O)c(O)c1)C(OC(=O)/C=C/c1ccc(O)c(O)c1)C(O)C(=O)O` (stereo not drawn) [Compound 9, 4ξ,5ξ-Di-O-caffeoyl-2,6ξ-dihydroxyhept-2-en-1,7-dioic acid-1-methyl ester], for which the “Antioxidant capacity (ORAC)” value in assay [1] turned out to be 6822 TE/g extract. For the same molecule, in assay [2] (5.0 μg/mL), the “Anti-inflammatory capacity, Average (PGE2 assay)” value (shortened to “Anti-inflammatory capacity”) was 45.00. For the same molecule, the “dose response in PGE2 assay” value in assay [2] is “did not exhibit a standard dose response type curve”.

With `COC(=O)/C(O)=C/C(OC(=O)/C=C/c1ccc(O)c(O)c1)C(OC(=O)/C=C/c1ccc(O)c(O)c1)C(O)C(=O)OC` (stereo not drawn) [Compound 10, 4ξ,5ξ-Di-O-caffeoyl-2,6ξ-dihydroxyhept-2-en-1,7-dioic acid-dimethyl ester], in assay [1], the “Antioxidant capacity (ORAC)” value is 3957 TE/g extract. Also, in assay [2] (5.0 μg/mL), the “Anti-inflammatory capacity” value is 73.95. For the same molecule, in assay [2], the “dose response in PGE2 assay” value was “did not exhibit a standard dose response type curve”.

Consider `COc1c(O)cc2oc(-c3ccc(O)cc3O)c(OC3OC(CO)C(O)C(O)C3O)c(=O)c2c1O` (single isomer, unassigned) [Compound 1, 2′,4′,5,7-tetrahydroxy-6-methoxyflavone-3-O-β-glucopyranoside], for which, in assay [1], the ORAC value is on record as 3871.9 μmol TE/g of extract and the “Antioxidant capacity (ORAC)” value was 12178 TE/g extract. Also, the “Anti-inflammatory capacity” value in assay [2] (5.0 μg/mL) turned out to be 52.2. Also, in assay [2] (Fibroblast), the IC50 turned out to be 1.47 µg/mL (≈ 2.97 µM). In assay [2] (Fibroblast, sample 0.125 mg/mL, maximal inhibition observed, read-out: % inhibition of PGE2 production ± SEM), the inhibition at 125 µg/mL stood at 67.8 ± 2.86%.

Regarding `O=C(/C=C/c1ccc(O)c(O)c1)OC(/C=C(\O)C(=O)O)C(OC(=O)/C=C/c1ccc(O)c(O)c1)C(O)C(=O)O` (single isomer, unassigned) [Compound 2, 4ξ,5ξ-Di-O-caffeoyl-2,6ξ-dihydroxyhept-2-en-1,7-dioic acid], in assay [1], the ORAC value was 3415.1 μmol TE/g of extract and the “Antioxidant capacity (ORAC)” value is reported as 13781 TE/g extract. Moreover, in assay [2] (5.0 μg/mL), the “Anti-inflammatory capacity” value worked out at 67.38. Moreover, the IC50 in assay [2] (Fibroblast) came out at 2.48 µg/mL (≈ 4.54 µM). The inhibition at 62.5 µg/mL in assay [2] (Fibroblast, sample 0.0625 mg/mL, maximal inhibition observed, read-out: % inhibition of PGE2 production ± SEM) was 74.5 ± 8.06%.

Turning to `COC(=O)C(O)C(OC(=O)/C=C/c1ccc(O)c(O)c1)C(/C=C(\O)C(=O)O)OC(=O)/C=C/c1ccc(O)c(O)c1` (stereo not drawn) [Compound 8, 4ξ,5ξ-Di-O-caffeoyl-2,6ξ-dihydroxyhept-2-en-1,7-dioic acid-7-methyl ester], the “Antioxidant capacity (ORAC)” value in assay [1] is listed as 8122 TE/g extract. Also, the “Anti-inflammatory capacity” value in assay [2] (5.0 μg/mL) is reported as 73.50. For the same molecule, the IC50 in assay [2] (Fibroblast) is 4.73 µg/mL (≈ 8.44 µM).

For `CC(=O)Oc1ccccc1C(=O)O` [Aspirin, aspirin, reference compound], the “Anti-inflammatory capacity” value in assay [2] (100 μM, positive control) was 54.6. The inhibition at 10 µM in assay [2] (Fibroblast, 0.01 mM, positive control, read-out: % inhibition of PGE2 production ± SEM) came out at 57.4 ± 14.4%.
